Usually IC50 stands for the concentration needed to halve the response being measured. As a reminder, the EC50 is the concentration needed to bring the measured effect to its halfway point.

The values that follow come from patent US9290457B2, “Substituted dihydropyrimidinones and their use as inhibitors of neutrophil elastase activity” (Boehringer Ingelheim International GmbH, priority 2014, dated 2016).

Molecules are shown by their SMILES.

The target in data set [1] is T1, neutrophil elastase (Homo sapiens (Human), UniProt P08246). As to the kind of experiment: Human Neutrophil Elastase Assay. It is filed as biochemical. The conditions noted are these: substrate MeOSuc-Ala-Ala-Pro-Val-AMC.
Target sequence in this assay (P08246 30-247): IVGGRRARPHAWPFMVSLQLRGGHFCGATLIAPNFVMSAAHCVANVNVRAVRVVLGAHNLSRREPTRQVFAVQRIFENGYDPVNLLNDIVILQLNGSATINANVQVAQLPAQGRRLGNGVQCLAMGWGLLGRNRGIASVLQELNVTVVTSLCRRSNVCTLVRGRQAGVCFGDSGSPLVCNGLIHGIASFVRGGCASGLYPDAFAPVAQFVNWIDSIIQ
Data set [2] addresses T1, neutrophil elastase. As to the kind of experiment: Neutrophil elastase inhibitory activity in human plasma. It is filed as biochemical. To be noted: zymosan-stimulated human plasma, substrate MeOSuc-Ala-Ala-Pro-Val-AMC. Here is the method: Assay for the Determination of Neutrophil Elastase Inhibitory Activity in Human Plasma
Citrated blood from human healthy donors is mixed with zymosan suspension and incubated at room temperature. This leads to the stimulation of neutrophils and the release of neutrophil elastase into the plasma. The stimulated blood is centrifuged to generate the neutrophil elastase enriched plasma.
Preparation of Zymosan Working Solution:
• A single 45 ml blood sample is taken into a 50 ml tube containing citrate (3.13%, 5 mL) and the tube is gently inverted 4 times. • Immediately after blood sampling, zymosan working solution (5 mL) is added. • After the addition of zymosan working solution, the tubes are capped, mixed gently and incubated at 22° C. for 15 min on a shaker at 20 rpm. • Make 10 ml aliquots after the incubation time. • Centrifuge the 15 ml tubes at 800 g for 15 min at 4° C. in a Jouan centrifuge. • Harvest the plasma and make 1-5 ml aliquots. • Store the plasma at −80° C.
Various concentrations of the neutrophil elastase inhibitor are incubated with plasma. Subsequently, the enzyme activity is measured using the fluorogenic substrate MeOSuc-Ala-Ala-Pro-Val-AMC (Bachem Cat. No. I-1270, substrate concentration: 250 μM, pH 7.5, 25 mM TRIS buffer, 250 mM NaCl) in analogous fashion as described for the human neutrophil assay. A dose response curve is generated to calculate the EC50 of the inhibitor. The analysis of the data is performed by the calculation of the percentage of fluorescence in the presence of the test compound compared to the fluorescence of the vehicle control after subtracting the background fluorescence: An inhibitor of the neutrophil elastase enzyme will give values between 100% control (no inhibition) and 0% control (complete inhibition).
Target sequence in this assay (P08246 30-267): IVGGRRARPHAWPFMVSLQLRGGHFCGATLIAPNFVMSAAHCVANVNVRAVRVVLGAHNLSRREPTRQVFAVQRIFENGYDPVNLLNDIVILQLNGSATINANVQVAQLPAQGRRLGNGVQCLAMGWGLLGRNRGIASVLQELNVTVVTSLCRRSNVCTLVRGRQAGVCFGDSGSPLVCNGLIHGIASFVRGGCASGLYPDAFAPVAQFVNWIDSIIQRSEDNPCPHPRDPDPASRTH

The next data set concerns human hepatocytes. The data set is described as follows: Metabolic stability with human hepatocytes. The data set is classed as in vitro ADME. To be noted: 1 μM compound, well stirred model. Here is the method:
Assay for the Determination of Metabolic Stability with Human Hepatocytes
The metabolic degradation of the test compound is assayed in a human hepatocyte suspension. Human hepatocytes (typically cryopreserved) are incubated in an appropriate buffer system (e.g. Dulbecco's modified eagle medium plus 3.5 μg glucagon/500 mL, 2.5 mg insulin/500 mL and 3.75 mg/500 mL hydrocortison) containing 5% species serum. Following a (typically) 30 min preincubation in an incubator (37° C., 10% CO2), 5 μl of test compound solution (80 μM; from 2 mM stock solution in DMSO diluted 1:25 with medium) are added into 395 μl hepatocyte suspension (cell density in the range 0.25-5*10^6 cells/mL, typically 1*10^6 cells/mL; final concentration of test compound 1 μM, final DMSO concentration 0.05%). The cells are incubated for six hours (incubator, orbital shaker) and samples (25 μl) are taken at 0, 0.5, 1, 2, 4 and 6 hours. Samples are transferred into acetonitrile and pelleted by centrifugation (5 min) The supernatant is transferred to a new 96-deepwell plate, evaporated under nitrogen and resuspended. The decline of parent compound is analyzed by LC-MS/MS.
The intrinsic clearance CL_[…] is calculated as follows: CL_[…]=Dose/AUC=(Co/CD)/(AUD+clast/k)*1,000/60 (Co: initial concentration in the incubation [μM], CD: cell density of vital cells [10^6 cells/mL], AUD: area under the data [μM*h], clast: concentration of last data point [μM], k: slope of the regression line for parent decline [h^−1])
The calculated in vitro hepatic intrinsic clearance Q h can be scaled up to the intrinsic in vivo hepatic clearance and used to predict hepatic in vivo blood clearance (CL) by the use of a liver model (well stirred model): CL_[…]_INVIVO[ml/min/kg]=(CL_[…][μL/min/10^6cells]*hepatocellularity[10^6cells/g liver]*liver factor[g/kg bodyweight])/1,000 CL[ml/min/kg]=CL_[…]_INVIVO[ml/min/kg]*hepatic blood flow [ml/min/kg]/(CL_[…]_INVIVO[ml/min/kg]+hepatic blood flow[ml/min/kg]) Qh[%]=CL[ml/min/kg]/hepatic blood flow[ml/min/kg]) (Hepatocellularity, human: 120*10^6 cells/g liver; liver factor, human: 25.7 g/kg bodyweight; blood flow, human: 21 ml/(min*kg)) Based on this assay.
The calculated in vitro hepatic intrinsic clearance values of selected compounds in the metabolic stability assay with human hepatocytes described above are listed in Table 4.

Data set [3] can be described thus: Metabolic stability with human liver microsomes. It is filed as in vitro ADME. The conditions noted are these: pooled human liver microsomes, 1 μM compound, 37° C.; for half-life at 1 μM: pH 7.6, read-out: t1/2 INVITRO. Here is the method: Assay for the Determination of Metabolic Stability with Human Liver Microsomes
The metabolic degradation of the test compound is assayed at 37° C. with pooled human liver microsomes. The final incubation volume of 100 μl per time point contains TRIS buffer pH 7.6 (0.1 M), magnesium chloride (5 mM), microsomal protein (1 mg/ml) and the test compound at a final concentration of 1 μM. Following a short preincubation period at 37° C., the reactions are initiated by addition of beta-nicotinamide adenine dinucleotide phosphate, reduced form (NADPH, 1 mM) and terminated by transferring an aliquot into acetonitrile after different time points. Additionally, the NADPH-independent degradation is monitored in incubations without NADPH, terminated at the last time point. The [%] remaining test compound after NADPH independent incubation is reflected by the parameter c(control) (metabolic stability). The quenched incubations are pelleted by centrifugation (10,000 g, 5 min) An aliquot of the supernatant is assayed by LC-MS/MS for the amount of parent compound.
The half-life (t1/2 INVITRO) is determined by the slope of the semilogarithmic plot of the concentration-time profile. The intrinsic clearance (CL_[…]) is calculated by considering the amount of protein in the incubation: CL_[…][μl/min/mg protein]=(ln 2/(half-life[min]*protein content[mg/ml]))*1,000.
The half-life (t1/2 INVITRO) values of selected compounds in the metabolic stability assay human liver microsomes described above are listed in Table 3.

`CC(=O)C1=C(C)N(c2cccc(C(F)(F)F)c2)C(=O)N(C)C1c1ccc(C#N)cc1C(=O)NC1CC1` (centres unmarked) [Example 1.8] had an IC50 against neutrophil elastase [1] below 1 nM. This compound had an EC50 at neutrophil elastase [2] of 1 nM. This compound displayed a Qh in the data set with human hepatocytes of 22%. Further, the “t1/2 INVITRO” value in data set [3] turned out to be 1.83 h.

Regarding `CNC(=O)c1cc(C#N)ccc1[C@@H]1C(C(C)=O)=C(C)N(c2cccc(C(F)(F)F)c2)C(=O)N1C` [Example 13.1], the IC50 on neutrophil elastase [1] was below 1 nM. On neutrophil elastase [2], the 50% effective concentration (EC50) is 1 nM. The same compound had a Qh with human hepatocytes of 16%. Further, the “t1/2 INVITRO” value in data set [3] is above 2.17 h.

`CC(=O)C1=C(C)N(c2cccc(C(F)(F)F)c2)C(=O)N(C)[C@@H]1c1ccc(C#N)cc1-c1ccc(=O)n(C)c1` [Example 16, 4-[(R)-5-Acetyl-3,6-dimethyl-2-oxo-1-(3-trifluoromethyl-phenyl)-1,2,3,4-tetrahydro-pyrimidin-4-yl]-3-(1-methyl-6-oxo-1,6-dihydro-pyridin-3-yl)-benzonitrile] displayed an IC50 against neutrophil elastase [1] below 1 nM. At neutrophil elastase [2], the EC50 came out at 1 nM. In addition, the Qh in the data set on human hepatocytes is on record as 5%. In addition, in data set [3], the half-life at 1 μM is above 2.17 h.

For the compound `CC(=O)C1=C(C)N(c2cccc(C(F)(F)F)c2)C(=O)N(C)C1c1ccc(C#N)cc1C(=O)NCC(C)(C)O` (centres unmarked) [Example 1.22], on neutrophil elastase [1], the half-inhibitory concentration (IC50) was determined as 1.4 nM. For the same compound, the EC50 on neutrophil elastase [2] was found to be 2 nM. This compound also gave a Qh in the data set with human hepatocytes of 15%. Besides, the half-life at 1 μM in data set [3] is above 2.17 h.

Take `CC(=O)C1=C(C)N(c2cccc(C(F)(F)F)c2)C(=O)N(C)C1c1ccc(C#N)cc1C(=O)NCC#N` (centres unmarked) [Example 1.6]: on neutrophil elastase [1], the IC50 was below 1 nM. For the same compound, the EC50 at neutrophil elastase [2] turned out to be 1 nM. This compound displayed a Qh in the data set with human hepatocytes of 25%. Moreover, in data set [3], the “t1/2 INVITRO” value was found to be 2.17 h.

In the case of `CC(=O)C1=C(C)N(c2cccc(C(F)(F)F)c2)C(=O)N(C)C1c1ccc(C#N)cc1C(=O)N1CCn2ncnc2C1` (centres unmarked) [Example 1.73], the IC50 against neutrophil elastase [1] is below 1 nM. The compound also displayed an EC50 at neutrophil elastase [2] of 2 nM. Also, the Qh with human hepatocytes was 19%. The half-life at 1 μM in data set [3] worked out at 2 h.

`CC(=O)C1=C(C)N(c2cccc(C(F)(F)F)c2)C(=O)N(C)[C@@H]1c1ccc(C#N)cc1-c1ccn(C)c(=O)c1` [Example 17, 4-[(R)-5-Acetyl-3,6-dimethyl-2-oxo-1-(3-trifluoromethyl-phenyl)-1,2,3,4-tetrahydro-pyrimidin-4-yl]-3-(1-methyl-2-oxo-1,2-dihydro-pyridin-4-yl)-benzonitrile] had an IC50 against neutrophil elastase [1] below 1 nM. This compound gave an EC50 at neutrophil elastase [2] of 5 nM. Besides, in the data set on human hepatocytes, the Qh was 6%. Further, the half-life at 1 μM in data set [3] is above 2.17 h.

`CC(=O)C1=C(C)N(c2cccc(C(F)(F)F)c2)C(=O)N(C)C1c1ccc(C#N)cc1C(=O)NCCF` (centres unmarked) [Example 1.10]: the IC50 against neutrophil elastase [1] is below 1 nM. The compound also gave a half-maximal effective concentration (EC50) on neutrophil elastase [2] of 1 nM. This compound gave a Qh in the data set on human hepatocytes of 27%. For the same compound, in data set [3], the “t1/2 INVITRO” value was above 2.17 h.
